According to patent US11186566B2, “Modulator of cystic fibrosis transmembrane conductance regulator, pharmaceutical compositions, methods of treatment, and process for making the modulator” (Vertex Pharmaceuticals Incorporated, priority 2016, dated 2021):
Like-named read-outs stand apart in the source and are kept apart here.

Tests used:
human PXR = human PXR (Homo sapiens (Human), UniProt O75469); assay: PXR assay (PXR mediated CYP3A4 induction, DPX-2 cell line); type: cell-based; details: DPX-2 cells, 48 hours, 0.1 to 60 μM
human PXR, sequence (O75469 whole entry): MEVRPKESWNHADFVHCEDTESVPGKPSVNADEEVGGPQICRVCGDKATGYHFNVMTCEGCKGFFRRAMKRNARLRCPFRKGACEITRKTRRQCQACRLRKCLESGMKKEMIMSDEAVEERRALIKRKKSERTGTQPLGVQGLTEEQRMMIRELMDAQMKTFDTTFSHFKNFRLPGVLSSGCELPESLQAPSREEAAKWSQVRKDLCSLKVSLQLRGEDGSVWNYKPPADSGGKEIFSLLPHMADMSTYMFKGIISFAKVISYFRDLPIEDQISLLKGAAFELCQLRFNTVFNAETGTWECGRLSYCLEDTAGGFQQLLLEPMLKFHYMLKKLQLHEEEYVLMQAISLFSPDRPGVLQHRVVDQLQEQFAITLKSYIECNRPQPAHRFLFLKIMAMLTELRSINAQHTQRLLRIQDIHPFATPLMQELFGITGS
Procedure: 5D. Experimental Protocol for PXR Assay
The propensity for PXR mediated CYP3A4 induction is assessed using the DPX-2 cell line in vitro. This cell line, which has been licensed from Puracyp Inc. was derived from HepG2 cells and has been stably transfected with genes encoding human PXR as well as a modified luciferase reporter linked to the CYP3A4 promoter region and related distal and proximal enhancers.
The assay is run in 384 well format and each test article is administered in 11 doses ranging from 0.1 to 60 μM. On day 1, DPX-2 cells which have previously been expanded in-house and cryopreserved are thawed and seeded in tissue culture plates. The following day, media is changed and cells are cultured in media containing test article, vehicle control or the positive control compound, the clinically validated CYP3A4 inducer rifampicin. Cells are cultured in the presence of test article for 48 hours and then cell viability is assessed using fluorescence based assay (Cell Titer-Fluor, Promega) with an EnVision Plate Reader (PerkinElmer). Subsequently, CYP3A4 transactivation, which is proportional to luciferase activity, is measured by reading luminescense using the Promega One-Glo reagent system using the same plate reader.
Data processing within the Genedata software package allows reporting of max fold induction compared to vehicle control, an EC50 value for CYP3A4 inducers and an 11 point-dose response curve.

F508del-CFTR = F508del-CFTR (Homo sapiens (Human), UniProt P13569, DEL508-508); assay: Membrane potential optical (fluorescent voltage sensing dye, FLIPR III) HTS assay for F508del-CFTR modulators; type: cell-based
F508del-CFTR, sequence (P13569 other isoform, or with tags, fused parts or gaps del F508-F508): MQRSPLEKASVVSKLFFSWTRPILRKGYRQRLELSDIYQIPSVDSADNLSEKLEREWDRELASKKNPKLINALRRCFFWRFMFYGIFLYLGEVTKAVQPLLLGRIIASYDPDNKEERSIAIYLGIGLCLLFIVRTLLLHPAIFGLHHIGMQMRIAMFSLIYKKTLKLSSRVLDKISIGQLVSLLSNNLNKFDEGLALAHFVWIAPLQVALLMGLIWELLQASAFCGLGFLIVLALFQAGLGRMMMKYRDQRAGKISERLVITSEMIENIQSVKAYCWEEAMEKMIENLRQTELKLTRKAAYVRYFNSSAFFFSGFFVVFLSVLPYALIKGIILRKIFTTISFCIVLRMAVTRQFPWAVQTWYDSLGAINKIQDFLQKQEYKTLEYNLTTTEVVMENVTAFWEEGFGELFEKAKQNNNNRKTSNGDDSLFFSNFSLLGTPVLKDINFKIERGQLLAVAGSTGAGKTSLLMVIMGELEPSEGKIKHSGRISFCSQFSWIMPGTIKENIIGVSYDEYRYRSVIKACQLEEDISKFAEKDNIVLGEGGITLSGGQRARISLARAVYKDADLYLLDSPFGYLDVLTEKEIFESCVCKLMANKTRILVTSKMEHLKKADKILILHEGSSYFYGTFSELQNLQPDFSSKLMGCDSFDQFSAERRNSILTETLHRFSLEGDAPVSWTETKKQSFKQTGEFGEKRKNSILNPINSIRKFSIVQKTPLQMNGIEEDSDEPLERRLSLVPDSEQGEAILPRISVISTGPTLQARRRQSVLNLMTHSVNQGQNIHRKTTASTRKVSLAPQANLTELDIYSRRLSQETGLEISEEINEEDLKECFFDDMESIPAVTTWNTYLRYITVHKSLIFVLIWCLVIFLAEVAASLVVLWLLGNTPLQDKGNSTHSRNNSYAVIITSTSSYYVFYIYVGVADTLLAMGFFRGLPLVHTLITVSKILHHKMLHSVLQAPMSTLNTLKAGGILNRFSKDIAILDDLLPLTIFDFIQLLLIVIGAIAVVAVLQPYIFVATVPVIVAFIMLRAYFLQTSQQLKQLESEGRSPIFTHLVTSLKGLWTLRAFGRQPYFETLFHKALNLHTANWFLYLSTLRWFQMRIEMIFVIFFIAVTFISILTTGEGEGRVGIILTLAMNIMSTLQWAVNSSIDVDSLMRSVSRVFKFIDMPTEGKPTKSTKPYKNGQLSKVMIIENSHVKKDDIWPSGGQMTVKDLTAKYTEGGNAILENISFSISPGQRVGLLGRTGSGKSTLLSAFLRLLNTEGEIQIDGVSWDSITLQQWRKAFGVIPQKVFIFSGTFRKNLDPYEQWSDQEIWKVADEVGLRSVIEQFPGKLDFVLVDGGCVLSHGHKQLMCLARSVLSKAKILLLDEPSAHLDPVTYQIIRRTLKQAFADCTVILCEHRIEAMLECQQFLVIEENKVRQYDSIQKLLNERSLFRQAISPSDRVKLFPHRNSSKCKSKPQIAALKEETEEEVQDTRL
Source text: Membrane Potential Optical Methods for Assaying Properties of F508del-CFTR Modulators
The assay utilizes fluorescent voltage sensing dyes to measure changes in membrane potential using a fluorescent plate reader (e.g., FLIPR III, Molecular Devices, Inc.) as a readout for increase in functional F508del in NIH 3T3 cells.
5A-A1. Identification of F508Del-CFTR Modulators
To identify modulators of F508del, a fluorescence based HTS assay format was developed. This HTS assay utilizes fluorescent voltage sensing dyes to measure changes in membrane potential on the FLIPR III as a measurement for increase in gating (conductance) of F508del NIH 3T3 cells.
(in mM) NaCl 160, KCl 4.5, CaCl2 2, MgCl2 1, HEPES 10, pH 7.4 with NaOH, Glucose 10.
Chloride salts in Bath Solution #1 (above) are substituted with gluconate salts.
NIH3T3 mouse fibroblasts stably expressing F508del are used for optical measurements of membrane potential. The cells are maintained at 37° C. in 5% CO2 and 90% humidity in Dulbecco's modified Eagle's medium supplemented with 2 mM glutamine, 10% fetal bovine serum, 1×NEAA, β-ME, 1×pen/strep, and 25 mM HEPES in 175 cm^2 culture flasks. For all optical assays, the cells were seeded at 12,000 cells/well in 384-well matrigel-coated plates and cultured for 18-24 hrs at 37° C. for the potentiator assay. For the correction assays, the cells are cultured at 37° C. with and without compounds for 18-24 hours.

Rat IV and PO PK studies = type: in vivo, male Sprague-Dawley rats; details: male, Sprague-Dawley, plasma; for bioavailability / AUC: 3 mg/kg, oral; for bioavailability: read-out: Rat po % F; for clearance: intravenous, 3.0 mg/kg, read-out: Rat iv CL
Procedure: 5C. Experimental Protocol for Rat IV and PO PK Studies
[…] […] Analyses of plasma and dose preparations were performed using LC/MS/MS.
Plasma concentration-time profiles of the tested compound in Sprague-Dawley rats at scheduled (nominal) sampling times were analyzed by noncompartmental pharmacokinetic methods using PK function within Watson LIMS software, Version 7.4.2 (Thermo Scientific Inc, Waltham, Mass.). AUC values were calculated using the linear trapezoidal rule.

[1] = F508del NIH 3T3 cells, assay 5A-A1, read-out: CFTRdF508 EC50
[2] = Table 9, read-out: CFTR dF508 EC50

PXR Max Induction (% of rifampicin) (human PXR)	EC50 (F508del-CFTR; [1]) [µM]	EC50 (F508del-CFTR; [2]) [µM]	EC50 (F508del-CFTR; Table 7, Compound 1 and metabolites, read-out: CFTRdF508 EC50) [µM]	SMILES	bioavailability (Rat IV and PO PK studies) [%]	clearance (Rat IV and PO PK studies) [L/h/kg]	AUC (Rat IV and PO PK studies) [µg·h/mL]
17 % of rifampicin	< 0.1	0.03		Cc1cccc(S(=O)(=O)NC(=O)c2ccc(-n3ccc(OCC4(C(F)(F)F)CC4)n3)nc2N2C[C@@H](C)CC2(C)C)c1 [Comp. 28, N-(m-Tolylsulfonyl)-6-[3-[[1-(trifluoromethyl)cyclopropyl]methoxy]pyrazol-1-yl]-2-[(4S)-2,2,4-trimethylpyrrolidin-1-yl]pyridine-3-carboxamide]			
8 % of rifampicin	< 0.1	0.07		C[C@@H]1CN(c2nc(-n3ccc(COCC4(C(F)(F)F)CC4)n3)ccc2C(=O)NS(=O)(=O)c2ccccc2)C(C)(C)C1 [Comp. 37, N-(Benzenesulfonyl)-6-[3-[[1-(trifluoromethyl)cyclopropyl]methoxymethyl]pyrazol-1-yl]-2-[(4S)-2,2,4-trimethylpyrrolidin-1-yl]pyridine-3-carboxamide]			
12 % of rifampicin	< 0.1	0.05		C[C@@H]1CN(c2nc(-n3ccc(OCCC4(C(F)(F)F)CC4)n3)ccc2C(=O)NS(=O)(=O)c2ccccc2Cl)C(C)(C)C1 [Comp. 43, N-(2-chlorophenyl) sulfonyl-6-[3-[2-[1-(trifluoromethyl)cyclopropyl]ethoxy]pyrazol-1-yl]-2-[(4S)-2,2,4-trimethylpyrrolidin-1-yl]pyridine-3-carboxamide]			
19 % of rifampicin	< 0.1	0.02		COc1cccc(S(=O)(=O)NC(=O)c2ccc(-n3ccc(OCC4(C(F)(F)F)CC4)n3)nc2N2C[C@@H](C)CC2(C)C)c1 [Comp. 49, N-(3-methoxyphenyl)sulfonyl-6-[3-[[1-(trifluoromethyl)cyclopropyl]methoxy]pyrazol-1-yl]-2-[(4S)-2,2,4-trimethylpyrrolidin-1-yl]pyridine-3-carboxamide]			
	< 0.1			C[C@@H]1CN(c2nc(-n3ccc(OCC4(C(F)(F)F)CCC4)n3)ccc2C(=O)NS(=O)(=O)c2cccc(F)c2)C(C)(C)C1 [Compound 59, N-(3-Fluorophenyl)sulfonyl-6-[3-[[1-(trifluoromethyl)cyclobutyl]methoxy]pyrazol-1-yl]-2-[(4S)-2,2,4-trimethylpyrrolidin-1-yl]pyridine-3-carboxamide]			
	0.1 to 1			C[C@@H]1CN(c2nc(-n3ccc(OCC4CC45CC5)n3)ccc2C(=O)NS(=O)(=O)c2ccccc2)C(C)(C)C1 (stereo partly drawn) [Compound 60, N-(Benzenesulfonyl)-6-[3-(spiro[2.2]pentan-2-ylmethoxy)pyrazol-1-yl]-2-[(4S)-2,2,4-trimethylpyrrolidin-1-yl]pyridine-3-carboxamide]			
	> 1		> 30	C[C@H]1CC(C)(C)N2c3nc(-n4ccc(OCCC5(C(F)(F)F)CC5)n4)ccc3C(=O)OC12 (stereo partly drawn) [Compound 62, (5S)-3,3,5-trimethyl-12-(3-(2-[1-(trifluoromethyl)cyclopropyl]ethoxy)-1H-pyrazol-1-yl)-7-oxa-2,13-diazatricyclo[7.4.0.02,6]trideca-1(13),9,11-trien-8-one]			

Further lines, the molecule ahead of its results:

SMILES	PXR Max Induction (% of rifampicin) (human PXR)	EC50 (F508del-CFTR; [1]) [µM]	EC50 (F508del-CFTR; [2]) [µM]	EC50 (F508del-CFTR; Table 7, Compound 1 and metabolites, read-out: CFTRdF508 EC50) [µM]	bioavailability (Rat IV and PO PK studies) [%]	clearance (Rat IV and PO PK studies) [L/h/kg]	AUC (Rat IV and PO PK studies) [µg·h/mL]
C[C@@H]1CN(c2nc(-n3ccc(OCC4C(C)(C)C4(C)C)n3)ccc2C(=O)NS(=O)(=O)c2ccc(O)cc2)C(C)(C)C1 [Comp. 33, N-(4-Hydroxyphenyl)sulfonyl-6-[3-[(2,2,3,3-tetramethylcyclopropyl)methoxy]pyrazol-1-yl]-2-[(4S)-2,2,4-trimethylpyrrolidin-1-yl]pyridine-3-carboxamide]	0 % of rifampicin	< 0.1	0.08				
C[C@@H]1CN(c2nc(-n3ccc(O[C@H]4C[C@H]5CC[C@@H]4C5)n3)ccc2C(=O)NS(=O)(=O)c2ccccc2)C(C)(C)C1 [Comp. 39, N-(benzenesulfonyl)-6-[3-[(1R,2S,4S)-norbornan-2-yl]oxypyrazol-1-yl]-2-[(4S)-2,2,4-trimethylpyrrolidin-1-yl]pyridine-3-carboxamide]	13 % of rifampicin	< 0.1	0.07				
C[C@@H]1CN(c2nc(-n3ccc(OCC4C[C@@H]5CC[C@@H]4C5)n3)ccc2C(=O)NS(=O)(=O)c2ccccc2)C(C)(C)C1 (stereo partly drawn) [Comp. 40, N-(Benzenesulfonyl)-6-[3-[[(1R,4R)-norbornan-2-yl]methoxy]pyrazol-1-yl]-2-[(4S)-2,2,4-trimethylpyrrolidin-1-yl]pyridine-3-carboxamide]	2 % of rifampicin	< 0.1	0.08				
C[C@@H]1CN(c2nc(-n3ccc(OCC(C4CC4)C4CC4)n3)ccc2C(=O)NS(=O)(=O)c2ccccc2)C(C)(C)C1 [Comp. 41, N-(Benzenesulfonyl)-6-[3-(2,2-dicyclopropylethoxy)pyrazol-1-yl]-2-[(4S)-2,2,4-trimethylpyrrolidin-1-yl]pyridine-3-carboxamide]					41	0.114	6.4
C[C@@H]1CN(c2nc(-n3ccc(OCCC(C4CC4)C4CC4)n3)ccc2C(=O)NS(=O)(=O)c2ccccc2)C(C)(C)C1 [Comp. 42, N-(Benzenesulfonyl)-6-[3-(3,3-dicyclopropylpropoxy)pyrazol-1-yl]-2-[(4S)-2,2,4-trimethylpyrrolidin-1-yl]pyridine-3-carboxamide]		< 0.1	0.05		51	0.324	4.4
C[C@@H]1CN(c2nc(-n3ccc(OCC(C)(C)C)n3)ccc2C(=O)NS(=O)(=O)c2ccc[nH]c2=O)C(C)(C)C1 [Comp. C, reference compound]	3 % of rifampicin						
C[C@@H]1CN(c2nc(-n3ccc(OCC4CCC4)n3)ccc2C(=O)NS(=O)(=O)c2cccnc2N)C(C)(C)C1 [Comp. E, reference compound]	10 % of rifampicin						
C[C@@H]1CN(c2nc(-n3ccc(OCCC4(C(F)(F)F)CC4)n3)ccc2C(=O)NS(=O)(=O)c2cccc(F)c2)C(C)(C)C1 [Compound 5, N-(3-Fluorophenyl)sulfonyl-6-[3-[2-[1-(trifluoromethyl)cyclopropyl]ethoxy]pyrazol-1-yl]-2-[(4S)-2,2,4-trimethylpyrrolidin-1-yl]pyridine-3-carboxamide]		< 0.1	0.05		50	0.576	2.7
C[C@@H]1CN(c2nc(-n3ccc(OCC4(C(F)(F)F)CCC4)n3)ccc2C(=O)NS(=O)(=O)c2ccccc2)C(C)(C)C1 [Compound 10, N-(Benzenesulfonyl)-6-[3-[[1-(trifluoromethyl)cyclobutyl]methoxy]pyrazol-1-yl]-2-[(4S)-2,2,4-trimethylpyrrolidin-1-yl]pyridine-3-carboxamide]		< 0.1	0.04		41	0.672	2.2
C[C@@H]1CN(c2nc(-n3ccc(OCC45CC(F)(C4)C5)n3)ccc2C(=O)NS(=O)(=O)c2ccccc2)C(C)(C)C1 [Compound 63, N-(Benzenesulfonyl)-6-[3-[(3-fluoro-1-bicyclo[1.1.1]pentanyl)methoxy]pyrazol-1-yl]-2-[(4S)-2,2,4-trimethylpyrrolidin-1-yl]pyridine-3-carboxamide]		0.1 to 1					
C[C@@H]1CN(c2nc(-n3ccc(O)n3)ccc2C(=O)NS(=O)(=O)c2ccccc2)C(C)(C)C1 [Compound 65, N-(benzenesulfonyl)-6-(3-hydroxypyrazol-1-yl)-2-[(4S)-2,2,4-trimethylpyrrolidin-1-yl]pyridine-3-carboxamide]		> 1					
